Assay results published in patent US20020076693A1, “Novel cell surface receptor for HIV retroviruses, therapeutic and diagnostic uses” (priority 1997, published 2002).
pEC50, pIC50: −log10 of the molar value.

Assays:
[1] = tested on: HIV-1 Lai; experiment: Inhibition of HIV-1 Lai infection of CEM cells (p24 production); assay type: cell-based
Protocol: Infection of CEM cells with the HIV-1 Lai isolate was carried out as described previously (Callebaut et al., 1996). For the assay of the inhibitory effect of rabbit antisera or purified antibodies, CEM cells were first incubated (15-30 min, at room temperature) in the presence of different concentrations of each antibody preparation before infection using 0.2 synchronous dose of HIV-1 Lai as described before (Laurent-Crawford and Hovanessian, 1993). HIV production was estimated at different days post-infection (p.i.) by monitoring the HIV-1 major core protein p24 in the culture supernatant (Callebaut et al., 1996). The concentration of p24 was measured by p24 Core Profile ELISA (Du Pont). For a single cycle of HIV, AZT ([…]) was added at 8 hr post-infection to inhibit multiple cycles of virus infection; HIV production was monitored at 4 days post-infection (Laurent-Crawford and Hovanessian, 1993).

[2] = tested on: CEM cells; experiment: FACS binding of labeled TASP constructs to the cell-surface ligand; set-up: species or system human; details: biotin-labeled constructs, dose for 50% labeling, read-out: Affinity to bind TASP-ligand (EC50), 50% effective dose
Excerpt: The cells were then washed twice with FACS buffer and fixed in 1% formaldehyde in FACS buffer. […] The fluorescence intensity was monitored by FACS analysis using Lysis II Software in FIGS. 3/4 and Tables 1/2, or Cell Quest™ Software (Beckton Dickinson and Apple Computer) in FIG. 5 +L.

[3] = tested on: HIV-1 Lai; experiment: HIV entry into HeLa P4 / P4-C5 cells (β-galactosidase activity), HIV-1 Lai; assay type: cell-based
[4] = tested on: HIV-1 JRCSF; experiment: HIV entry into HeLa P4-C5 cells (β-galactosidase), HIV-1 JRCSF; assay type: cell-based; details: HeLa P4-C5, HIV-1 JRCSF; read-out: IC50, inhibition of HIV entry
[5] = tested on: VSV/HIV; assay type: cell-based
[6] = tested on: HIV-1 Ada-M; experiment: HIV-1 Ada-M entry into HeLa P4-C5 cells (β-galactosidase); assay type: cell-based; details: HeLa P4-C5, β-galactosidase at 48 hours
Protocol: HeLa cells (P4-C5) were treated (incubation at 37° C., 30 min) with AZT (5 μM), (α-CD4 mAb CBT4 (5 μg/ml) before infection with the different HIV isolates in order to obtain the background β-galactosidase activity compared to untreated cells (Control). During the same time, the different HIV isolates were treated (incubation at room temperature, 15 min) with 1, 5, and 10 μg/ml of heparin before addition to untreated cells. The b-galactosidase activity was assayed at 48 hours post-infection as a measure of HIV entry (3 +L7).

[7] = tested on: HIV-1 ELI, Ba-L, SF162, UGO29A, and Retrovir resistant isolate; experiment: Infection of PBMC by different HIV-1 isolates (p24 in culture medium); assay type: cell-based; details: p24 at 6 days post-infection, range over the isolates, read-out: IC50 values, virus production in PBMC
Excerpt: Virus production was monitored by the concentration of p24 in the culture medium at 6 days post-infection (3 +L0). The HIV-1 isolates were:
Virus production was monitored by the concentration of p24 in the culture medium at 7 days post-infection.

[8] = tested on: HIV-1 Ada-M; experiment: Infection of PBMC by HIV-1 Ada-M (p24); assay type: cell-based; details: p24 at 6 days post-infection
Excerpt: Virus production was monitored by the concentration of p24 in the culture medium at 6 days post-infection (3 +L0).

[9] = molecular target: P95/nucleolin (Homo sapiens, UniProt P19338); experiment: Saturation of binding sites of P95/nucleolin
[10] = molecular target: P40/PHAPII (Homo sapiens, UniProt Q01105); experiment: Saturation of binding sites of P40/PHAPII
[11] = tested on: cell surface component (CEM and C8166 clones); experiment: Competition for cell-surface binding of 8-MAP; set-up: species or system human; details: FACS competition
[12] = molecular target: CD4 (Homo sapiens, UniProt P01730); experiment: BIAcore biosensor binding to soluble CD4; details: binding protein soluble recombinant CD4, BIAcore
[13] = tested on: HIV-1 pseudotyped Mo-MLV virus; experiment: Infection of CEM cells by HIV-1 pseudotyped Mo-MLV virus (p24); details: p24 at 48 hours p.i., AZT 5 μM, TASP 5 μM
Protocol: CEM cells (2×10^5) were infected with the HIV-1 pseudoryped Mo-MLV virus (Experimental procedure) at 95 ng of p24/ml, in the absence (histogram Control) or presence of different additions (as indicated). The infection was monitored by the production of p24, which was measured in the culture supernatant at 48 hours p.i. The mean±SD of duplicate samples is given. Treatment of cells with the different antibodies was as in FIG. 6 +L. For a control of infection, cells were pretreated with 5 μM AZT before infection.
Hela cells were cotransfected by electroporation with plasmids pNL4-3 defective in env gene (Borman et al., 1995) and pE4070A expressing amphotrope envelope glycoproteins of Mo-MLV (Battini et al., 1996). Electroporation (Schwartz et al., 1996) was performed at 200 V, 960 μF, using a 4 mm wide cuvettes in a BIO-Rad Gene Pulser. The pseudotyped virus was recovered from the culture supernatant after 48 hours of culturing.

[14] = molecular target: cell-surface P95 (Homo sapiens, UniProt P19338); experiment: Recovery of cell-surface P95 complexed to biotin-labeled 5[Kψ(CH2N)PR]-TASP, competition by unlabeled constructs; details: 50 μM unlabeled, 5 μM biotin-labeled 5[Kψ(CH2N)PR]-TASP
Chain of cell-surface P95 (P19338 whole entry): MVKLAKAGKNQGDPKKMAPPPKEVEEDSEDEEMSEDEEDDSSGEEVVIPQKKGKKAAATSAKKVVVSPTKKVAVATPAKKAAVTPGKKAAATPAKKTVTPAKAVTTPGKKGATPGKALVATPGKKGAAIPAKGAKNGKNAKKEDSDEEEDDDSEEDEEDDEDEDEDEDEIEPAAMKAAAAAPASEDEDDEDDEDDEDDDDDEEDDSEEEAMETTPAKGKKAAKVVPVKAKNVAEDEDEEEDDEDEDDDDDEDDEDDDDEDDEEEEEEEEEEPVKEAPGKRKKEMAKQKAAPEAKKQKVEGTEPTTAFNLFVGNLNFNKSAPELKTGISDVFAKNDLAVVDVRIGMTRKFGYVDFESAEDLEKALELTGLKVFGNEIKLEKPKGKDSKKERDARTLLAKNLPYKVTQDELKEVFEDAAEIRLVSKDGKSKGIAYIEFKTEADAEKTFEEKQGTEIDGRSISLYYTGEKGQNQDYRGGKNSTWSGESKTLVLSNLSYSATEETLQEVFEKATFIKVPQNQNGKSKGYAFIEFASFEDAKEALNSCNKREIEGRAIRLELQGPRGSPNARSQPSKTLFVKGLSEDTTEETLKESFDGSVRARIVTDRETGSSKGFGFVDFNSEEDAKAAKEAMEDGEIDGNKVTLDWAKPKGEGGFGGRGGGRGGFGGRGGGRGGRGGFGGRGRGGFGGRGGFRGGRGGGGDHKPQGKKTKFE
Protocol: Cells were then washed extensively before preparation of cell extracts. The complexes formed between the biotin-labeled TASP constructs and any cell-surface protein were then recovered by purification using avidin-agarose (“Materials and Methods”). […] Lane 1 “Extract” represents the ligand blot analysis of crude CEM cell extracts; material corresponding to 10^6 cells.
Cells were then washed in FACS buffer (2×15 ml) and nucleus-free cell extracts were prepared using buffer E (150 ml). Such extracts were first diluted in PBS containing 1 mM EDTA (600 μl) before the addition of 100 μl avidin-agarose (ImmunoPure Immobilized Avidin from Pierce Chemical Company, U.S.A.) to capture the biotin-labeled TASP complexed to its cell surface ligand(s). These suspensions were incubated at 4° C. for 2 hr, and the avidin-agarose bound proteins were washed batchwise with PBS containing 1 mM EDTA (5×5 ml). Finally, the avidin-agarose pellet was resuspended in 100 ml of 2-fold concentrated electrophoresis sample buffer and heated at 95° C. for 5 min.

Chain of P95/nucleolin (P19338 whole entry): as above
Chain of P40/PHAPII (Q01105 1-277 isoform Q01105-2): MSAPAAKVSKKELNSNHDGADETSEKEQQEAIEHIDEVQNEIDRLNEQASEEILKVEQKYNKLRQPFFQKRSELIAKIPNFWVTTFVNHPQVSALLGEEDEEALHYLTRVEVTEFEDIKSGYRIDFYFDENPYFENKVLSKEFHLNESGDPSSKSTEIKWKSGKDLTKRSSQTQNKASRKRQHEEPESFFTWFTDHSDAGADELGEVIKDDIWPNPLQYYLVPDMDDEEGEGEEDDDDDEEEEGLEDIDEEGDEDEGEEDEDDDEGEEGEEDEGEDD

For 5[Kψ(CH2N)PR]-TASP, the “inhibition of virus production” value ([1]; 5 mM added one hour before or together with the virus) was “more than 90%”, the “inhibitory effect when added at 8 hours p.i.” value ([1]; CEM cells) was “almost no effect” and the “HIV entry monitored by intracellular concentration of p24” value ([1]; CEM cells, 1 hour incubation with virus, 5-10 μM) was “inhibited almost completely”. For the same substance, the “combined action with AZT against an HIV infection” value ([1]; CEM cells, HIV-1 Lai, p24 at 4 days p.i.) was “synergistic action”, the pIC50 ([1]; CEM cells, construct added 15 min before HIV-1, p24 at 4 days p.i., read-out: Inhibition of HIV infection (IC50), 50% dose) was 6.30 and the “inhibition of HIV-1 Lai infection in CEM cells” value ([1]; TASP 5 μM, p24 at 5 days p.i.) was “more than 95%”. For the same substance, the “inhibition of virus infection” value ([1]; TASP 10 μM, mAb OKT4A 10 mg/ml) was “complete inhibition”, the “higher activity compared to non-reduced counterpart 5[KPR]-TASP” value ([1]; both inhibition of HIV infection and affinity to bind the cell-surface ligand) was no less than 10 fold and the pEC50 [2] was 6.82. The “inhibition of viral entry monitored by β-galactosidase activity in HeLa/CD4^+ cells” value ([3]; 5-10 μM) was “at least 90%”, the “inhibition of HIV-1 LAI infection in HeLa cells” value ([3]; 37° C. in culture medium, 0.1-1 μM) was “more than 90%” and the pIC50 [4] was 6.52. For the same substance, the “effect on VSV-HIV pseudotyped virus entry and replication” value [5] was “had no effect”, the “effect on HIV-1 Ada-M entry” value [6] was “enhances” and the pIC50 [7] was 6.30 to 7.30. The “effect on HIV-1 Ada-M infection of PBMC” value [8] was “no effect”, the “concentration for 100% saturation of the binding sites” value [9] was 2 µM and the “concentration for 100% saturation of the binding sites” value [10] was 4 µM. The “concentration sufficient to block the binding of 10 μM of 8-MAP” value [11] was 1 µM, the “ka (association rate constant)” value ([12]; listed as 5(KΨ(CH2N)PR)TASP) was “nb^b” and the “ka (association rate constant)” value ([12]; listed as 5[KΨ(CH2N)PR]-TASP) was “No binding”. The “effect on infection by HIV-1 pseudotyped Mo-MLV virus” value [13] was “no significant effect” and the “isolation of cell-surface P95 abolished by excess unlabeled construct” value [14] was “completely abolished”.
